In the NIST ThermoML archive (doi:10.1021/je3011979):

Key:
[1] = excess molar enthalpy (molar enthalpy of mixing); xn = mol fraction of the nth substance listed; conditions: 101 kPa, Liquid, Calvet calorimetry
[2] = xn = mol fraction of the nth substance listed; conditions: 101 kPa, Liquid, Vibrating tube method

CCCOC(C)=O [propyl ethanoate] + CCCCCC
Conditions	excess molar enthalpy [kcal/mol]	mass density [kg/m3]
[1], 291.15 K, x1 = 0.074	0.0657	–
[1], 291.15 K, x1 = 0.1514	0.13	–
[1], 291.15 K, x1 = 0.2307	0.179	–
[1], 291.15 K, x1 = 0.3056	0.2204	–
[1], 291.15 K, x1 = 0.3758	0.2481	–
[1], 291.15 K, x1 = 0.4417	0.2598	–
[1], 291.15 K, x1 = 0.4984	0.2651	–
[1], 291.15 K, x1 = 0.5492	0.2605	–
[1], 291.15 K, x1 = 0.5528	0.2598	–
[1], 291.15 K, x1 = 0.6101	0.2459	–
[1], 291.15 K, x1 = 0.6705	0.2275	–
[1], 291.15 K, x1 = 0.7361	0.1953	–
[1], 291.15 K, x1 = 0.8064	0.157	–
[1], 291.15 K, x1 = 0.8762	0.111	–
[1], 291.15 K, x1 = 0.9422	0.0588	–
[1], 298.15 K, x1 = 0.0319	0.0246	–
[1], 298.15 K, x1 = 0.0736	0.0648	–
[1], 298.15 K, x1 = 0.145	0.126	–
[1], 298.15 K, x1 = 0.2223	0.178	–
[1], 298.15 K, x1 = 0.3011	0.2225	–
[1], 298.15 K, x1 = 0.366	0.2481	–
[1], 298.15 K, x1 = 0.4223	0.2639	–
[1], 298.15 K, x1 = 0.503	0.2682	–
[1], 298.15 K, x1 = 0.559	0.2615	–
[1], 298.15 K, x1 = 0.6073	0.2495	–
[1], 298.15 K, x1 = 0.6518	0.234	–
[1], 298.15 K, x1 = 0.7091	0.2089	–
[1], 298.15 K, x1 = 0.7653	0.177	–
[1], 298.15 K, x1 = 0.8334	0.136	–
[1], 298.15 K, x1 = 0.8989	0.0899	–
[1], 298.15 K, x1 = 0.9494	0.0466	–
[1], 318.15 K, x1 = 0.0748	0.0691	–
[1], 318.15 K, x1 = 0.1298	0.122	–
[1], 318.15 K, x1 = 0.2004	0.176	–
[1], 318.15 K, x1 = 0.2777	0.2249	–
[1], 318.15 K, x1 = 0.3479	0.2529	–
[1], 318.15 K, x1 = 0.4119	0.2674	–
[1], 318.15 K, x1 = 0.4746	0.2739	–
[1], 318.15 K, x1 = 0.5084	0.2729	–
[1], 318.15 K, x1 = 0.5582	0.2694	–
[1], 318.15 K, x1 = 0.6039	0.2581	–
[1], 318.15 K, x1 = 0.6543	0.2419	–
[1], 318.15 K, x1 = 0.7123	0.2185	–
[1], 318.15 K, x1 = 0.7753	0.185	–
[1], 318.15 K, x1 = 0.8288	0.147	–
[1], 318.15 K, x1 = 0.8906	0.0997	–
[1], 318.15 K, x1 = 0.9452	0.0535	–
[2], 291.15 K, x1 = 0.012	–	663.4
[2], 291.15 K, x1 = 0.0372	–	668
[2], 291.15 K, x1 = 0.0924	–	678.5
[2], 291.15 K, x1 = 0.1648	–	692.7
[2], 291.15 K, x1 = 0.2357	–	707
[2], 291.15 K, x1 = 0.3085	–	722.2
[2], 291.15 K, x1 = 0.3804	–	737.7
[2], 291.15 K, x1 = 0.442	–	751.4
[2], 291.15 K, x1 = 0.5117	–	767.2
[2], 291.15 K, x1 = 0.5781	–	782.6
[2], 291.15 K, x1 = 0.64	–	797.3
[2], 291.15 K, x1 = 0.702	–	812.3
[2], 291.15 K, x1 = 0.7697	–	829.1
[2], 291.15 K, x1 = 0.8208	–	842.2
[2], 291.15 K, x1 = 0.8835	–	858.4
[2], 291.15 K, x1 = 0.9247	–	869.3
[2], 291.15 K, x1 = 1	–	889.6
[2], 298.15 K, x1 = 0.0175	–	658
[2], 298.15 K, x1 = 0.035	–	661.2
[2], 298.15 K, x1 = 0.0831	–	670.3
[2], 298.15 K, x1 = 0.1535	–	683.9
[2], 298.15 K, x1 = 0.2218	–	697.6
[2], 298.15 K, x1 = 0.2836	–	710.3
[2], 298.15 K, x1 = 0.3539	–	724.9
[2], 298.15 K, x1 = 0.4197	–	739.4
[2], 298.15 K, x1 = 0.4795	–	752.7
[2], 298.15 K, x1 = 0.5417	–	766.9
[2], 298.15 K, x1 = 0.604	–	781.5
[2], 298.15 K, x1 = 0.6583	–	794.5
[2], 298.15 K, x1 = 0.7242	–	810.6
[2], 298.15 K, x1 = 0.7772	–	823.9
[2], 298.15 K, x1 = 0.8357	–	838.9
[2], 298.15 K, x1 = 0.8934	–	853.9
[2], 298.15 K, x1 = 0.9187	–	860.5
[2], 298.15 K, x1 = 0.9749	–	875.7
[2], 298.15 K, x1 = 1	–	882.5
[2], 318.15 K, x1 = 0.0304	–	641.7
[2], 318.15 K, x1 = 0.0796	–	650.7
[2], 318.15 K, x1 = 0.1381	–	661.7
[2], 318.15 K, x1 = 0.2079	–	675.3
[2], 318.15 K, x1 = 0.2642	–	686.6
[2], 318.15 K, x1 = 0.3318	–	700.5
[2], 318.15 K, x1 = 0.3997	–	714.9
[2], 318.15 K, x1 = 0.4505	–	725.9
[2], 318.15 K, x1 = 0.5124	–	739.7
[2], 318.15 K, x1 = 0.5708	–	752.9
[2], 318.15 K, x1 = 0.622	–	764.8
[2], 318.15 K, x1 = 0.6815	–	778.9
[2], 318.15 K, x1 = 0.7426	–	793.7
[2], 318.15 K, x1 = 0.7992	–	807.7
[2], 318.15 K, x1 = 0.8648	–	824.4
[2], 318.15 K, x1 = 0.9227	–	839.3
[2], 318.15 K, x1 = 1	–	859.8
[2], 328.15 K, x1 = 0.0253	–	631.3
[2], 328.15 K, x1 = 0.0749	–	640.2
[2], 328.15 K, x1 = 0.1369	–	651.6
[2], 328.15 K, x1 = 0.2052	–	664.7
[2], 328.15 K, x1 = 0.2719	–	677.8
[2], 328.15 K, x1 = 0.3322	–	690.1
[2], 328.15 K, x1 = 0.3986	–	704
[2], 328.15 K, x1 = 0.4614	–	717.6
[2], 328.15 K, x1 = 0.5209	–	730.7
[2], 328.15 K, x1 = 0.5809	–	744.3
[2], 328.15 K, x1 = 0.62	–	753.3
[2], 328.15 K, x1 = 0.6944	–	770.8
[2], 328.15 K, x1 = 0.7605	–	786.8
[2], 328.15 K, x1 = 0.8114	–	799.4
[2], 328.15 K, x1 = 0.8707	–	814.4
[2], 328.15 K, x1 = 0.9235	–	828
[2], 328.15 K, x1 = 1	–	848.3

CCCOC(C)=O [propyl ethanoate] + CCCCCCC
Conditions	excess molar enthalpy [kcal/mol]	mass density [kg/m3]
[1], 291.15 K, x1 = 0.0996	0.104	–
[1], 291.15 K, x1 = 0.2001	0.181	–
[1], 291.15 K, x1 = 0.2956	0.2392	–
[1], 291.15 K, x1 = 0.3852	0.2725	–
[1], 291.15 K, x1 = 0.4642	0.2849	–
[1], 291.15 K, x1 = 0.5309	0.2856	–
[1], 291.15 K, x1 = 0.588	0.2746	–
[1], 291.15 K, x1 = 0.638	0.2565	–
[1], 291.15 K, x1 = 0.656	0.25	–
[1], 291.15 K, x1 = 0.7113	0.2266	–
[1], 291.15 K, x1 = 0.7717	0.1936	–
[1], 291.15 K, x1 = 0.8326	0.153	–
[1], 291.15 K, x1 = 0.8942	0.104	–
[1], 291.15 K, x1 = 0.9501	0.054	–
[2], 291.15 K, x1 = 0.0086	–	686.6
[2], 291.15 K, x1 = 0.032	–	690.1
[2], 291.15 K, x1 = 0.0864	–	698.2
[2], 291.15 K, x1 = 0.1706	–	711.3
[2], 291.15 K, x1 = 0.2573	–	725.7
[2], 291.15 K, x1 = 0.3308	–	738.6
[2], 291.15 K, x1 = 0.3974	–	750.9
[2], 291.15 K, x1 = 0.4644	–	763.7
[2], 291.15 K, x1 = 0.5398	–	778.9
[2], 291.15 K, x1 = 0.6055	–	792.8
[2], 291.15 K, x1 = 0.6723	–	807.4
[2], 291.15 K, x1 = 0.7257	–	819.6
[2], 291.15 K, x1 = 0.8	–	837.2
[2], 291.15 K, x1 = 0.8457	–	848.5
[2], 291.15 K, x1 = 0.9057	–	864
[2], 291.15 K, x1 = 0.9708	–	881.6
[2], 291.15 K, x1 = 1	–	889.6
[2], 298.15 K, x1 = 0.0149	–	681.8
[2], 298.15 K, x1 = 0.0308	–	684
[2], 298.15 K, x1 = 0.0953	–	693.5
[2], 298.15 K, x1 = 0.168	–	704.8
[2], 298.15 K, x1 = 0.2358	–	715.8
[2], 298.15 K, x1 = 0.3084	–	728.2
[2], 298.15 K, x1 = 0.375	–	740.2
[2], 298.15 K, x1 = 0.4386	–	752.1
[2], 298.15 K, x1 = 0.5062	–	765.3
[2], 298.15 K, x1 = 0.5643	–	777.2
[2], 298.15 K, x1 = 0.6488	–	795.2
[2], 298.15 K, x1 = 0.6684	–	799.5
[2], 298.15 K, x1 = 0.7446	–	816.9
[2], 298.15 K, x1 = 0.793	–	828.4
[2], 298.15 K, x1 = 0.8688	–	847.3
[2], 298.15 K, x1 = 0.91	–	858
[2], 298.15 K, x1 = 0.9508	–	868.8
[2], 298.15 K, x1 = 1	–	882.5
[2], 318.15 K, x1 = 0.0291	–	666.1
[2], 318.15 K, x1 = 0.0843	–	673.9
[2], 318.15 K, x1 = 0.1595	–	685.1
[2], 318.15 K, x1 = 0.23	–	696.3
[2], 318.15 K, x1 = 0.2972	–	707.3
[2], 318.15 K, x1 = 0.3638	–	718.8
[2], 318.15 K, x1 = 0.4295	–	730.8
[2], 318.15 K, x1 = 0.4902	–	742.3
[2], 318.15 K, x1 = 0.553	–	754.6
[2], 318.15 K, x1 = 0.6057	–	765.4
[2], 318.15 K, x1 = 0.6734	–	779.8
[2], 318.15 K, x1 = 0.726	–	791.4
[2], 318.15 K, x1 = 0.7727	–	802.1
[2], 318.15 K, x1 = 0.7949	–	807.7
[2], 318.15 K, x1 = 0.8645	–	824.4
[2], 318.15 K, x1 = 0.9242	–	839.3
[2], 318.15 K, x1 = 1	–	859.8
[2], 328.15 K, x1 = 0.0373	–	658.5
[2], 328.15 K, x1 = 0.0866	–	665.4
[2], 328.15 K, x1 = 0.1645	–	676.8
[2], 328.15 K, x1 = 0.2401	–	688.6
[2], 328.15 K, x1 = 0.3096	–	700
[2], 328.15 K, x1 = 0.3783	–	711.8
[2], 328.15 K, x1 = 0.4478	–	724.3
[2], 328.15 K, x1 = 0.5142	–	736.8
[2], 328.15 K, x1 = 0.5756	–	748.9
[2], 328.15 K, x1 = 0.6377	–	761.7
[2], 328.15 K, x1 = 0.6884	–	772.5
[2], 328.15 K, x1 = 0.756	–	787.5
[2], 328.15 K, x1 = 0.8074	–	799.5
[2], 328.15 K, x1 = 0.856	–	811.2
[2], 328.15 K, x1 = 0.9097	–	824.7
[2], 328.15 K, x1 = 0.9638	–	838.7
[2], 328.15 K, x1 = 1	–	848.3
